Experiment [1] has as its system other P2X receptors. Conditions: cited from earlier work.
Experiment [2] deals with IL-6. Kind of experiment: In vivo cytokine production: IL-6 in peritoneal lavage of LPS-primed mice by ELISA. Conditions: LPS-primed mice subsequently challenged with ATP; 4 hour time point. As for the experimental part: Groups of mice are injected intraperitoneally (ip) with 1 μg of LPS. […] Samples of peritoneal lavages are spun down, and the supernatants are collected and tested for the presence of IL-1β and IL-6 using ELISAs (Amersham Life Sciences, Arlington Heights, Va. and Endogen, Woburn, Mass., respectively).
IL-1 signaling may lead to the production of other cytokines such as IL-6 (Allen et al. (2000), J. Exp. Med. 191:859-869). […] The animals are incubated for an additional period (e.g., 4 hours) and peritoneal lavages are collected several times during the course of the incubation and analyzed for cytokines by ELISA. […] By 4 hours, however, IL-6 levels recovered from the LPS-PBS treated animals returned to baseline.
A general note: An ELISA detects its analyte on a solid surface through an enzyme-linked reagent.

The target of experiment [3] is T1, P2X7 receptor (Mus musculus, UniProt Q9Z1M0).
T1 construct: endogenous in cells; host or cells: peritoneal macrophages isolated from wild-type animals
T1 sequence (Q9Z1M0 1-595): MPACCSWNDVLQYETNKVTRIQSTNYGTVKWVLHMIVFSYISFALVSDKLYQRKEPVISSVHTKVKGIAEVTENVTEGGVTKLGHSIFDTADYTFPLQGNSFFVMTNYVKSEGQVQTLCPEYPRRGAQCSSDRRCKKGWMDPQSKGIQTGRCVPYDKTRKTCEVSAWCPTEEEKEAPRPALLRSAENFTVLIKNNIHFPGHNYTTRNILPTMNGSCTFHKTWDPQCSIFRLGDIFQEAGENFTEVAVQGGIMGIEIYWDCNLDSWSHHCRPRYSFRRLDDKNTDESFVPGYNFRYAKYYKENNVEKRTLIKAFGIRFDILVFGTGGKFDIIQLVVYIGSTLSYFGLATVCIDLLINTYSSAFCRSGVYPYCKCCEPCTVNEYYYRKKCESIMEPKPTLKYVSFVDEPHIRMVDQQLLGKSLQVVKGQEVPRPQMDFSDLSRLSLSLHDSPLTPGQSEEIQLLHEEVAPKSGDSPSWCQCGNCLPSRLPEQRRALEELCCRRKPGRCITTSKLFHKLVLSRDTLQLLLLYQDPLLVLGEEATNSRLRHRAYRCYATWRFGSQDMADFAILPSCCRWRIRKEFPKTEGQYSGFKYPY
Kind of experiment: P2X7 receptor-mediated YoPro Yellow uptake in peritoneal macrophages. Conditions: peritoneal macrophages from wild-type animals, 5 mM ATP, extracellular YoPro Yellow. It counts as cell-based. As to the method:
This increase in fluorescence results from internalization of the dye molecules followed by their binding to DNA; when bound to DNA, the fluorescence intensity increases.
When assaying P2X7 receptor function using isolated macrophages, the peritoneal macrophages are washed with isotonic medium (15 mM HEPES, pH 7.2, 135 mM NaCl, 5 mM KCl, […], […]) by centrifugation and the resulting cell pellet is suspended in isotonic medium to achieve a final cell concentration of about 1×10^6 cells/ml. Fifty μl of this cell suspension is placed into the wells of a plate (e.g., Microfluor “B” U-bottom plate, Dynatech, Chantilly, Va.), and 50 μl of a fluorescent dye (e.g., 2 μM YoPro Yellow, Molecular Probes, Eugene, Oreg.) dissolved in the isotonic medium is added to each well. Test compounds or control vehicles are added to the wells with or without the addition of […]. Fluorescence is monitored as a function of time at […]. For YoPro Yellow dye, excitation is at 450 nm and emission is measured at 530 nm. Test compounds which stimulate P2X7 receptor activity increase fluorescence as compared to control samples that lack test compound.

`Nc1ncnc2c1ncn2[C@@H]1O[C@H](COP(=O)(O)OP(=O)(O)OP(=O)(O)O)[C@@H](O)[C@H]1O` [ATP, adenosine triphosphate]: the “ATP concentrations at which receptors activate” value in experiment [1] is “less than or equal to 100 μM”. Moreover, in experiment [2], the “lavage fluid IL-6, peak value” was over 25 ng/mL. The “fluorescence intensity (YoPro Yellow internalization)” value in experiment [3] is listed as “time dependent increase in fluorescence intensity”.

Values taken from US20050054013A1, “Methods and products for identifying modulators of P2X7 receptor activity, and their use in the treatment of skeletal disorders” (Pfizer Inc, priority 2001, published 2005).
